Results: US20250360100A1, “ANTI-CANCER DERIVATIVES OF OVATODIOLIDE AND USE THEREOF” (ARJIL BIOTECH HOLDING COMPANY LIMITED, priority 2024, published 2025)
Converted amounts (≈) assume the structure as drawn.

Tests used:
[1] = tested on: A549 (human non-small cell lung cancer cells); test: MTT cytotoxicity assay in A549 cells; format: cell-based; details: 48 hours treatment, read-out: CC50 (50% cytotoxic concentration)
Description: (§1) In the invention, the cytotoxic effect was evaluated by the viability of cancer/tumor cells measured by the MTT assay, in several cancer cell lines, including the cell lines 293, A549, Colo205, SK-HEP1, PC-3, PANC-1, and AGS.
(§2) The compounds as tested were dissolved in DMSO (100 mg/mL), along with Doxorubicin (Dox), taken as a benchmark control, and the in vitro cytotoxicity in cancer cell lines were tested from 60 or 100 μg/mL with three-fold serial dilutions, and the 50% cytotoxic concentration (CC50) of test articles was determined by MTT assay.
(§3) Seven cancer cell lines were used in this example, including 293 (human embryonic kidney cells 293), A549 (human non-small cell lung cancer cells), Colo205 (human colon adenocarcinoma cells), SK-HEP1 (human hepatic cancer cells), PC-3 (human prostate carcinoma), PANC-1 (human pancreatic epithelioid carcinoma), and AGS (human gastric adenocarcinoma cells), cultured in the media and indicated as the table above. Briefly, cells seeded in 96-well plates were treated for 48 hours with the compounds as tested and the solvent (0.1% DMSO) as the vehicle control, respectively. Cell viability was determined by the MTT method, and the CC50 values were calculated using GraFit (Version 7, Erithacus Software Ltd., Horley, UK) and recorded.

[2] = tested on: AGS (human gastric adenocarcinoma cells); test: MTT cytotoxicity assay in AGS cells; format: cell-based; details: 48 hours treatment, read-out: CC50 (50% cytotoxic concentration)
Description: as §1, §2, §3

[3] = tested on: 293 (human embryonic kidney cells 293); test: MTT cytotoxicity assay in 293 cells; format: cell-based; details: HEK293, 48 hours treatment, read-out: CC50 (50% cytotoxic concentration)
Description: as §1, §2, §3

[4] = tested on: SK-HEP1 (human hepatic cancer cells); test: MTT cytotoxicity assay in SK-HEP1 cells; format: cell-based; details: 48 hours treatment, read-out: CC50 (50% cytotoxic concentration)
Description: as §1, §2, §3

[5] = tested on: PC-3 (human prostate carcinoma); test: MTT cytotoxicity assay in PC-3 cells; format: cell-based; details: 48 hours treatment, read-out: CC50 (50% cytotoxic concentration)
Description: as §1, §2, §3

[6] = tested on: PANC-1 (human pancreatic epithelioid carcinoma); test: MTT cytotoxicity assay in PANC-1 cells; format: cell-based; details: 48 hours treatment, read-out: CC50 (50% cytotoxic concentration)
Description: as §1, §2, §3

[7] = tested on: Colo205 (human colon adenocarcinoma cells); test: MTT cytotoxicity assay in Colo205 cells; format: cell-based; details: COLO 205, 48 hours treatment, read-out: CC50 (50% cytotoxic concentration)
Description: as §1, §2, §3

[8] = tested on: seven cancer cell lines (293, A549, Colo205, SK-HEP1, PC-3, PANC-1, AGS); test: MTT cytotoxicity, overall statement for the seven cancer cell lines; format: cell-based, human; details: all seven cell lines, 48 hours
Description: as §1, §2, §3

SMILES	CC50 [1] [µg/mL]	CC50 [2] [µg/mL]	CC50 [3] [µg/mL]	CC50 [4] [µg/mL]	CC50 [5] [µg/mL]	CC50 [6] [µg/mL]	CC50 [7] [µg/mL]	cytotoxicity (result in words) [8]
C=C1C(=O)O[C@H]2/C=C(\C)C[C@@H]3C=C(CC/C=C(\C)CC[C@H]12)C(=O)O3 [AR100-DS1, ovatodiolide]	29.6 ± 0.4 (≈ 90.1 µM)	13 ± 5.1 (≈ 39.6 µM)	25.7 ± 2.5 (≈ 78.3 µM)	49.9 ± 5.2 (≈ 152 µM)	17.8 ± 0.2 (≈ 54.2 µM)	40.2 ± 3.9 (≈ 122 µM)	41.7 ± 4.5 (≈ 127 µM)	–
COc1cccc2c1C(=O)c1c(O)c3c(c(O)c1C2=O)C[C@@](O)(C(=O)CO)C[C@@H]3O[C@H]1C[C@H](N)[C@H](O)[C@H](C)O1 [Dox, Doxorubicin]	> 10	0.3 ± 0.1 (≈ 0.552 µM)	> 10	9.8 ± 0.2 (≈ 18 µM)	10.3 ± 1.5 (≈ 19 µM)	10.7 ± 1.5 (≈ 19.7 µM)	8.7 ± 0.6 (≈ 16 µM)	–
C=C1C(=O)O[C@H]2/C=C(\C)C[C@@H]3C=C(CCC4OC4(C)CC[C@H]12)C(=O)O3 (stereo partly drawn) [Ova-Oxy]	23 ± 4.7 (≈ 66.8 µM)	9.1 ± 0.9 (≈ 26.4 µM)	22.5 ± 0.5 (≈ 65.3 µM)	45.2 ± 3.2 (≈ 131 µM)	12.3 ± 5.4 (≈ 35.7 µM)	32 ± 0.8 (≈ 92.9 µM)	17 ± 0.2 (≈ 49.4 µM)	exhibit cytotoxic effects in all of the seven cancer cell lines
C/C1=C\CCC2=C[C@@H](C/C(C)=C/[C@@H]3OC(=O)C(CSCCO)[C@H]3CC1)OC2=O (stereo partly drawn) [Ova-ST2]	> 100	> 100	> 100	> 100	> 100	> 100	> 100	did not exhibit the cytotoxicity
